According to ChEMBL document CHEMBL4004825 (J Med Chem, 2017):

Key:
[1] = Oral bioavailability in mouse; type: ADME, organism-based; settings: in vivo
[2] = target: Receptor tyrosine-protein kinase erbB-2 (Homo sapiens, UniProt P04626); experiment: Inhibition of human N-terminal His-tagged HER2 expressed in baculovirus expression system in presence of 1 mM ATP
[3] = Half life in dog plasma; type: ADME, Canis lupus familiaris
[4] = Oral bioavailability in dog; type: ADME, organism-based, Canis lupus familiaris; settings: in vivo
[5] = Unbound intrinsic clearance in human hepatocytes assessed per million cells; type: ADME, cell-based, Hepatocyte
[6] = Blood clearance in mouse; type: ADME, organism-based; settings: whole blood
[7] = Blood clearance in rat; type: ADME; settings: whole blood
[8] = Unbound intrinsic clearance in monkey hepatocytes assessed per million cells; type: ADME, cell-based, Macaca mulatta, Hepatocyte; settings: rhesus monkey
[9] = Permeability in RRCK cells; type: ADME, cell-based, Canis lupus familiaris, MDCKII-LE; settings: dog, MDCK; read-out: permeability
[10] = Oral bioavailability in rat; type: ADME, organism-based; settings: in vivo
[11] = Volume of distribution at steady state in rat; type: ADME; settings: in vivo, read-out: Vdss
[12] = Half-life in monkey blood; type: ADME, tissue-based, Macaca mulatta; settings: rhesus monkey
[13] = Half life in mouse plasma; type: ADME
[14] = Blood clearance in dog; type: ADME, Canis lupus familiaris; settings: whole blood
[15] = Stability in human liver microsomes; type: ADME, microsome; settings: read-out: Stability
[16] = Half-life in Sprague-Dawley rat blood at 1 uM by LC-MS/MS analysis; type: ADME, tissue-based
[17] = target: Epidermal growth factor receptor (Homo sapiens, UniProt P00533); experiment: Inhibition of N-terminal GST-tagged human EGFR cytoplasmic domain expressed in baculovirus infected Sf21 insect cells in presence of 1 mM ATP
Sequence of Epidermal growth factor receptor (P00533 whole entry, the tested form may be a part): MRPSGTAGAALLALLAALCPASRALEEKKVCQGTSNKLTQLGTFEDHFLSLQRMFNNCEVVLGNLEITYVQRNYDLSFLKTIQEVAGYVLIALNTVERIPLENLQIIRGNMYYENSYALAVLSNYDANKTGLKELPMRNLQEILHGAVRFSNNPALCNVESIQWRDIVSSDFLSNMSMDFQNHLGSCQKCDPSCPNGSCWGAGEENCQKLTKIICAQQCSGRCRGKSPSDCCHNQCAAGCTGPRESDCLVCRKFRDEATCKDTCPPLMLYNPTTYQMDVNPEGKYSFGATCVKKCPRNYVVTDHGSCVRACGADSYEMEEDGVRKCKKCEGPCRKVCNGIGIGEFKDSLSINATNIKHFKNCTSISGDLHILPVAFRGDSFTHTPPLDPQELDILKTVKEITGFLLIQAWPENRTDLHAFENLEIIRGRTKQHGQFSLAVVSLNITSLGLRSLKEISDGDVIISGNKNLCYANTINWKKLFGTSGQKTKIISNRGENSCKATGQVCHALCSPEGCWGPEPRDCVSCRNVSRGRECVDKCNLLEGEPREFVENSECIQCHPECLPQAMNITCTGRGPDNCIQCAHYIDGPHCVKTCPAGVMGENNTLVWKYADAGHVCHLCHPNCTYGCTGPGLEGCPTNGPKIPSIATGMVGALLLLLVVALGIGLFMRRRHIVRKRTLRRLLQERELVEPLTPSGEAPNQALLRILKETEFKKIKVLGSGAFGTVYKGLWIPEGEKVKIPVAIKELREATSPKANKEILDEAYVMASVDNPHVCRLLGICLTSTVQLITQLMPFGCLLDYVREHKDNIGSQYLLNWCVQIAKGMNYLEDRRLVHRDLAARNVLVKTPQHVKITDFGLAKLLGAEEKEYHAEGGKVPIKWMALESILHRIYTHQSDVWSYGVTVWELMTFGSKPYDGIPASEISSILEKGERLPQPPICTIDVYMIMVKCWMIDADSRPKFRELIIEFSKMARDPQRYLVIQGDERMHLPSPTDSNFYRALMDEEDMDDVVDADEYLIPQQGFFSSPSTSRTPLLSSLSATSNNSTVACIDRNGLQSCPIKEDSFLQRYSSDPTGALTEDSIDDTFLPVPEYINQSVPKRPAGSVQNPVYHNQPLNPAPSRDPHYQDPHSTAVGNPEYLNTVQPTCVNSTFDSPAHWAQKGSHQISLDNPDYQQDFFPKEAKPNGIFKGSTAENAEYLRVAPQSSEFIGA

[18] = target: T1, Tyrosine-protein kinase Tec (Homo sapiens, UniProt P42680); experiment: Inhibition of full length human His-tagged TEC by KT178 probe based TR-FRET assay
T1 sequence (P42680 whole entry): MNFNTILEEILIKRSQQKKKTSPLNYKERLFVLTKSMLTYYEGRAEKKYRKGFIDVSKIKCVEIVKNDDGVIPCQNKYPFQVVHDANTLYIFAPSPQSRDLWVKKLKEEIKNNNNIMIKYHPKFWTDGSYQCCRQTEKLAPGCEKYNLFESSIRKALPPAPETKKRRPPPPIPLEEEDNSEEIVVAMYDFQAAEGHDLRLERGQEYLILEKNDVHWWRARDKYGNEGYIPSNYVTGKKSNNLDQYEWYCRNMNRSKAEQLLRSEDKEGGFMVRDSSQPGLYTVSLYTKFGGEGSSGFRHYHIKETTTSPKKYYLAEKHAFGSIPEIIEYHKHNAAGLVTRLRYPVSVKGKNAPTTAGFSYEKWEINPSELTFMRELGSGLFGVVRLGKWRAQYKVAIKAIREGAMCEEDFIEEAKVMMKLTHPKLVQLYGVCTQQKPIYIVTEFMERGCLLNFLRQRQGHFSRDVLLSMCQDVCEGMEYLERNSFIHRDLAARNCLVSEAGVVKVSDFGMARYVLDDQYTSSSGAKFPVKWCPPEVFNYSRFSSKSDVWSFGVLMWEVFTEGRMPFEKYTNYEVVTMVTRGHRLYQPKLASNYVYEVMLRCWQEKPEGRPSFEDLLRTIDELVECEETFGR

[19] = Oral bioavailability in monkey; type: ADME, organism-based, Macaca mulatta; settings: rhesus monkey, in vivo
[20] = Half life in monkey plasma; type: ADME, Macaca mulatta; settings: rhesus monkey
[21] = target: T2, Tyrosine-protein kinase Blk (Homo sapiens, UniProt P51451); experiment: Inhibition of full length recombinant human His-tagged cytoplasmic BLK expressed in baculovirus expression system by KT236 probe based TR-FRET assay
T2 sequence (P51451 whole entry): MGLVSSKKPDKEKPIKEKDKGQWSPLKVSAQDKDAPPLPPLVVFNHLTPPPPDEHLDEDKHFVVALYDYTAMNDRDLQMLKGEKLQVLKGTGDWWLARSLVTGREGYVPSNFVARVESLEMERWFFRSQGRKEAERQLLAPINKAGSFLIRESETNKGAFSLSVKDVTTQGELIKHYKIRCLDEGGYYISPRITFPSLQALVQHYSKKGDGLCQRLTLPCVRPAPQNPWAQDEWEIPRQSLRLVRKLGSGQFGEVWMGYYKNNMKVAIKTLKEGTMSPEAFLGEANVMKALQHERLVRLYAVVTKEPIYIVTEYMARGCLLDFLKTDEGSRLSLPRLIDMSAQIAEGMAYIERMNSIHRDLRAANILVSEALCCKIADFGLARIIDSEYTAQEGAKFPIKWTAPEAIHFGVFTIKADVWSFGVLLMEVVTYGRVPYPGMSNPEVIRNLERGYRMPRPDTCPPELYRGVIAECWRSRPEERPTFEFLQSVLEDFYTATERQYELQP

[22] = Unbound intrinsic clearance in dog hepatocytes assessed per million cells; type: ADME, cell-based, Canis lupus familiaris, Hepatocyte
[23] = Blood clearance in monkey; type: ADME, Macaca mulatta; settings: rhesus monkey, whole blood
[24] = Volume of distribution at steady state in dog; type: ADME, Canis lupus familiaris; settings: in vivo, read-out: Vdss
[25] = Half-life in rat blood; type: ADME, tissue-based
[26] = target: T2, Tyrosine-protein kinase Blk; experiment: Inhibition of full length recombinant human His-tagged cytoplasmic BLK expressed in baculovirus expression system in presence of 1 mM ATP by KT236 probe based TR-FRET assay
[27] = Aqueous solubility of the compound; type: physicochemical
[28] = target: T3, Dual specificity mitogen-activated protein kinase kinase 7 (Homo sapiens, UniProt O14733); experiment: Inhibition of human N-terminal GST-tagged full length MAP2K7 expressed in baculovirus infected Sf21 insect cells in presence of 1 mM ATP
T3 sequence (O14733 whole entry): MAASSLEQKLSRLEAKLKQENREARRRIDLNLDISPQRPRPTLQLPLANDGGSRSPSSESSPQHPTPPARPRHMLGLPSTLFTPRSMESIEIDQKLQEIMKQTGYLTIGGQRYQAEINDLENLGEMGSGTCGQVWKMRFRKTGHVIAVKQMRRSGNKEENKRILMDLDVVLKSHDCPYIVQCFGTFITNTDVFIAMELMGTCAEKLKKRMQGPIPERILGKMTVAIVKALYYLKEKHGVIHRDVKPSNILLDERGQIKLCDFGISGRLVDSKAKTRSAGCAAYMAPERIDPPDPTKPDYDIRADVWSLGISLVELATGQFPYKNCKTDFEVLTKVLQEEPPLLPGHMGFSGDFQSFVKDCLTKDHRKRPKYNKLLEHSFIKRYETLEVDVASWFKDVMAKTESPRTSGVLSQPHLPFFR

[29] = Stability in rat liver microsomes; type: ADME, microsome; settings: read-out: Stability
[30] = Half life in rat plasma; type: ADME
[31] = Unbound intrinsic clearance in mouse hepatocytes assessed per million cells; type: ADME, cell-based, Hepatocyte
[32] = Unbound intrinsic clearance in rat hepatocytes assessed per million cells; type: ADME, cell-based, Hepatocyte
[33] = target: T4, Tyrosine-protein kinase TXK (Homo sapiens, UniProt P42681); experiment: Inhibition of recombinant human N-terminal GST-tagged TXK using GEPLYWSFPAKKK as substrate measured every 60 secs for 1 hr by PK/LDH coupled spectrophotometric assay
T4 sequence (P42681 whole entry): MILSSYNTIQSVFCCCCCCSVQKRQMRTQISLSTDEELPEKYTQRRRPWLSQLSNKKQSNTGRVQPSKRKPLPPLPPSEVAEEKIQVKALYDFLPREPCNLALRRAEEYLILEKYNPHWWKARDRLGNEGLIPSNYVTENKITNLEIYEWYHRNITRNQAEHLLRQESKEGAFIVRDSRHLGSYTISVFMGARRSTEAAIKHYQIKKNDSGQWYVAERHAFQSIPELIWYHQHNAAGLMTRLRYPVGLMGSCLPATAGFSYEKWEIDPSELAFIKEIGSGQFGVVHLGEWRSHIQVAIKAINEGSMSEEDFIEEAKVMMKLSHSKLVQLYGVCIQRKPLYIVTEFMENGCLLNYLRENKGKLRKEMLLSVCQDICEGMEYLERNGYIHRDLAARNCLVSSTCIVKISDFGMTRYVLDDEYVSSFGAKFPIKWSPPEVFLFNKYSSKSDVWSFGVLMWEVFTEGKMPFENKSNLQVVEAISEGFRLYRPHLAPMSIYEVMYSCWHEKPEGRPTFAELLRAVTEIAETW

[34] = Volume of distribution at steady state in monkey; type: ADME, Macaca mulatta; settings: rhesus monkey, in vivo; read-out: Vdss
[35] = Volume of distribution at steady state in mouse; type: ADME, organism-based; settings: in vivo, read-out: Vdss

Sequence of Receptor tyrosine-protein kinase erbB-2 (P04626 whole entry): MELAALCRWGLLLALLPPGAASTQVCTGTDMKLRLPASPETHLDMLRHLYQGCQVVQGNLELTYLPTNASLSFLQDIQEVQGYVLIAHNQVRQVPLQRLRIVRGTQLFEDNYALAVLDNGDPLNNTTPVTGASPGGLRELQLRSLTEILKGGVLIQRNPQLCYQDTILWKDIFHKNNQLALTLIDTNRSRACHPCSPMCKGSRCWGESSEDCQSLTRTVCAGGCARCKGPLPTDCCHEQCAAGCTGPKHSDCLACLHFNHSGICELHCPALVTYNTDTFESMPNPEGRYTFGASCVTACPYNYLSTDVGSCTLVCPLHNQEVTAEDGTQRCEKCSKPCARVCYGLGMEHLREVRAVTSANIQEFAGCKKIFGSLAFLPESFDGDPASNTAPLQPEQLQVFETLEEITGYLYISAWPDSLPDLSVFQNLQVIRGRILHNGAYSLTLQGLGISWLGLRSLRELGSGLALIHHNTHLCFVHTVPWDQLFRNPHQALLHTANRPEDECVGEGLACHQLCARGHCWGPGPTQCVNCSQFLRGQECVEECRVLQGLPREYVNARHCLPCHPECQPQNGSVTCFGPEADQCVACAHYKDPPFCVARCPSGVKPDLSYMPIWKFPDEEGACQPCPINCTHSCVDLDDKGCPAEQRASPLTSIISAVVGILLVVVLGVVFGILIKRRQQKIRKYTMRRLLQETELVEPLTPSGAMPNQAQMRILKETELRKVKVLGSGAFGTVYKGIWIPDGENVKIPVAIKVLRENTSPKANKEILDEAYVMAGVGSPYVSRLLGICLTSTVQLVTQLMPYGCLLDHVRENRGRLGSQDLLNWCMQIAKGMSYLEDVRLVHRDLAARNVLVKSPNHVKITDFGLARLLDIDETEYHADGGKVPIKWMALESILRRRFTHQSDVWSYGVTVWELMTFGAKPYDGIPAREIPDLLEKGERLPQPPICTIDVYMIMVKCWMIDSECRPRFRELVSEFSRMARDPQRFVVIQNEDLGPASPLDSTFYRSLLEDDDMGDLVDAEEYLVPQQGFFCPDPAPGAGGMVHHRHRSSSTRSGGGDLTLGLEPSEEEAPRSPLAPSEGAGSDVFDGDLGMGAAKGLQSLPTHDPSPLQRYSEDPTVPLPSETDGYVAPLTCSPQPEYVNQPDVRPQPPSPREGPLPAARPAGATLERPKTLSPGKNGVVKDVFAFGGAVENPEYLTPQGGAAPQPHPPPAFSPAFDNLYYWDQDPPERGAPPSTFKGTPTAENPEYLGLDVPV

Structure (SMILES): C=CC(=O)N1C[C@H](Nc2ncnc3[nH]ccc23)CC[C@@H]1C [RITLECITINIB]
- bioavailability [1]: 62%
- IC50 [2]: > 50 µM
- half-life [3]: 1.1 h
- bioavailability [4]: 109%
- CL free [5]: 2.8 µL/min
- clearance [6]: 48 mL/min/kg
- clearance [7]: 53 mL/min/kg
- CL free [8]: 7.6 µL/min
- Papp [9]: 15 ×10⁻⁶ cm/s
- bioavailability [10]: 85%
- Vd [11]: 1.4 L/kg
- half-life [12]: 0.617 h
- half-life [13]: 1.3 h
- clearance [14]: 8.6 mL/min/kg
- microsomal CLint [15]: 8 µL/min/mg
- half-life at 1 µM [16]: 2.68 h
- IC50 [17]: > 50 µM
- Ki [18]: 0.679 µM
- bioavailability [19]: 56%
- half-life [20]: 0.7 h
- Ki [21]: 32.4 µM
- CL free [22]: 2.1 µL/min
- clearance [23]: 42 mL/min/kg
- Vd [24]: 1.1 L/kg
- half-life [25]: 2.68 h
- IC50 [26]: 19 µM
- solubility [27]: > 2000 µg/mL
- IC50 [28]: > 50 µM
- microsomal CLint [29]: < 15 µL/min/mg
- half-life [30]: 0.3 h
- CL free [31]: 53 µL/min
- CL free [32]: 14 µL/min
- Ki [33]: 0.131 µM
- Vd [34]: 2.6 L/kg
- Vd [35]: 0.8 L/kg
